Results published in patent publication US20250163038A1, “CBL-B MODULATORS AND USES THEREOF” (Nimbus Clio, Inc., priority 2021, published 2025).

Columns and labels:
[1] = target: Recombinant human Cbl-b (aa 36-427) (Homo sapiens, UniProt Q13191); experiment: Cbl-b Biochemical Assay (TR-FRET); settings: read-out: TR-FRET hCbl-b IC50
[2] = tested on: Jurkat (clone E6-1) cells with NFAT luciferase reporter; experiment: Jurkat reporter assay (NFAT Luciferase); format: cell-based; settings: Homo sapiens; Jurkat NFAT luciferase reporter cells, anti-CD3 stimulation, 6 hr; read-out: Jurkat NFAT EC50
[3] = target: T1, Recombinant human c-Cbl (aa 47-435) (Homo sapiens, UniProt P22681); experiment: c-Cbl Biochemical Assay (TR-FRET); settings: hc-Cbl Biochemical Assay (TR-FRET); read-out: TR-FRET hcCbl IC50
T1 sequence (P22681 47-435): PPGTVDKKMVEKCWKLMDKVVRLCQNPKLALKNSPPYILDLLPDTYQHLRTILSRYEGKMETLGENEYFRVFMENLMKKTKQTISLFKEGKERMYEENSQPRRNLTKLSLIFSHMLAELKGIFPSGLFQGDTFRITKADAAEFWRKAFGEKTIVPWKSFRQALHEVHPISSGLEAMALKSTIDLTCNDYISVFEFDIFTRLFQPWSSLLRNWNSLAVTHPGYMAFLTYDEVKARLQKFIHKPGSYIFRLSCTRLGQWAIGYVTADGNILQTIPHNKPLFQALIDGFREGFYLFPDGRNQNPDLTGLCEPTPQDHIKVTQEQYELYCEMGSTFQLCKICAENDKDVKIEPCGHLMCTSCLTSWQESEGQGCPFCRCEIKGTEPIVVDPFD

Chain of Recombinant human Cbl-b (aa 36-427) (Q13191 36-427): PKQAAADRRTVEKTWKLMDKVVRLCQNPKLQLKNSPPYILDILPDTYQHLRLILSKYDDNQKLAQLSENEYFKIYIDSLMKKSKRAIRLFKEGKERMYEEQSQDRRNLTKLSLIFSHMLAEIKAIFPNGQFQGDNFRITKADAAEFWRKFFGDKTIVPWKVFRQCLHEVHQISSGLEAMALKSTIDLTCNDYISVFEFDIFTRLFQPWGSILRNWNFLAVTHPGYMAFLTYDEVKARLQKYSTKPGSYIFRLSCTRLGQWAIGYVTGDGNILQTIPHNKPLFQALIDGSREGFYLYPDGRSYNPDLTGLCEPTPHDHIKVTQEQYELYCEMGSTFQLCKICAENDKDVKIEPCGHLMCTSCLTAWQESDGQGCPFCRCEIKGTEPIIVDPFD

| IC50 [1] [nM] | EC50 [2] [nM] | IC50 [3] [nM] | Compound |
| --- | --- | --- | --- |
| < 200 | 200 to 1000 | 1000 to 10000 | Cn1cnnc1-c1cc(F)ccc1-c1cccc(-c2nc3cc(CN[C@@H]4CCC[C@@H]4O)cc(C(F)(F)F)c3[nH]2)c1 [BM-2, (1S,2R)-2-(((2-(4′-Fluoro-2′-(4-methyl-4H-1,2,4-triazol-3-yl)-[1,1′-biphenyl]-3-yl)-7-(trifluoromethyl)-1H-benzo[d]imidazol-5-yl)methyl)amino)cyclopentan-1-ol] |
| < 200 | 200 to 1000 | 1000 to 10000 | Cn1cnnc1-c1cc(F)ccc1-c1cccc(-c2nc3cc(CN[C@H]4CCC[C@@H]4O)cc(C(F)(F)F)c3[nH]2)c1 [BN-2, (1S,2S)-2-(((2-(4′-Fluoro-2′-(4-methyl-4H-1,2,4-triazol-3-yl)-[1,1′-biphenyl]-3-yl)-7-(trifluoromethyl)-1H-benzo[d]imidazol-5-yl)methyl)amino)cyclopentan-1-ol] |
| < 200 | 200 to 1000 | 1000 to 10000 | C[C@H]1CCCN(Cc2cc(C(F)(F)F)c3[nH]c(-c4cccc(-c5ccc(F)cc5-c5nncn5C)c4)nc3c2)C1 [BO-2, (S)-2-(4′-Fluoro-2′-(4-methyl-4H-1,2,4-triazol-3-yl)-[1,1′-biphenyl]-3-yl)-5-((3-methylpiperidin-1-yl)methyl)-7-(trifluoromethyl)-1H-benzo[d]imidazole] |
| < 200 | 200 to 1000 | 1000 to 10000 | Cn1cnnc1-c1cc(F)ccc1-c1cccc(-c2nc3cc(CNCC4(O)CCC4)cc(C(F)(F)F)c3[nH]2)c1 [BP-1, 1-((((2-(4′-Fluoro-2′-(4-methyl-4H-1,2,4-triazol-3-yl)-[1,1′-biphenyl]-3-yl)-7-(trifluoromethyl)-1H-benzo[d]imidazol-5-yl)methyl)amino)methyl)cyclobutan-1-ol] |
| < 200 | 200 to 1000 | 1000 to 10000 | Cn1cnnc1-c1cc(F)ccc1-c1cccc(-c2nc3cc(CNCC4(O)COC4)cc(C(F)(F)F)c3[nH]2)c1 [BQ-1, 3-((((2-(4′-Fluoro-2′-(4-methyl-4H-1,2,4-triazol-3-yl)-[1,1′-biphenyl]-3-yl)-7-(trifluoromethyl)-1H-benzo[d]imidazol-5-yl)methyl)amino)methyl)oxetan-3-ol] |
| < 200 | 1000 to 10000 | 1000 to 10000 | Cn1cnnc1-c1cc(F)ccc1-c1cccc(-c2nc3cc(CN4CC(C)(O)C4)cc(C(F)(F)F)c3[nH]2)c1 [BR-1, 1-((2-(4′-Fluoro-2′-(4-methyl-4H-1,2,4-triazol-3-yl)-[1,1′-biphenyl]-3-yl)-7-(trifluoromethyl)-1H-benzo[d]imidazol-5-yl)methyl)-3-methylazetidin-3-ol] |
| < 200 | 200 to 1000 | 1000 to 10000 | Cn1cnnc1-c1cc(F)ccc1-c1cccc(-c2nc3cc(CNCC(C)(C)O)cc(C(F)(F)F)c3[nH]2)c1 [BT-1, 1-(((2-(4′-Fluoro-2′-(4-methyl-4H-1,2,4-triazol-3-yl)-[1,1′-biphenyl]-3-yl)-7-(trifluoromethyl)-1H-benzo[d]imidazol-5-yl)methyl)amino)-2-methylpropan-2-ol] |
| < 200 | 200 to 1000 | 1000 to 10000 | Cn1cnnc1-c1cc(F)ccc1-c1cccc(-c2nc3cc(CN4CCC5(CC4)CC5)cc(C(F)(F)F)c3[nH]2)c1 [BU-1, 5-((6-Azaspiro[2.5]octan-6-yl)methyl)-2-(4′-fluoro-2′-(4-methyl-4H-1,2,4-triazol-3-yl)-[1,1′-biphenyl]-3-yl)-7-(trifluoromethyl)-1H-benzo[d]imidazole] |
| < 200 | 200 to 1000 | 1000 to 10000 | Cn1cnnc1-c1cc(F)ccc1-c1cccc(-c2nc3cc(CNCC4(O)CC4)cc(C(F)(F)F)c3[nH]2)c1 [BV-1, 1-((((2-(4′-Fluoro-2′-(4-methyl-4H-1,2,4-triazol-3-yl)-[1,1′-biphenyl]-3-yl)-7-(trifluoromethyl)-1H-benzo[d]imidazol-5-yl)methyl)amino)methyl)cyclopropan-1-ol] |
| < 200 | 1000 to 10000 | 1000 to 10000 | Cn1cnnc1-c1cc(F)ccc1-c1cccc(-c2nc3cc(CN[C@@H]4CCC[C@@H]4O)ccc3[nH]2)c1 [BY-1, (1S,2R)-2-(((2-(4′-Fluoro-2′-(4-methyl-4H-1,2,4-triazol-3-yl)-[1,1′-biphenyl]-3-yl)-1H-benzo[d]imidazol-5-yl)methyl)amino)cyclopentan-1-ol] |
| < 200 | 1000 to 10000 | 1000 to 10000 | CN1CCC[C@H](NCc2cc(C(F)(F)F)c3[nH]c(-c4cccc(-c5ccc(F)cc5-c5nncn5C)c4)nc3c2)C1=O [CC-2, (S)-3-(((2-(4′-Fluoro-2′-(4-methyl-4H-1,2,4-triazol-3-yl)-[1,1′-biphenyl]-3-yl)-7-(trifluoromethyl)-1H-benzo[d]imidazol-5-yl)methyl)amino)-1-methylpiperidin-2-one, formic Acid] |
| < 200 | 200 to 1000 | 1000 to 10000 | Cn1cnnc1-c1cc(F)ccc1-c1cccc(-c2nc3cc(CNCC(C)(C)F)cc(C(F)(F)F)c3[nH]2)c1 [CD-2, 2-Fluoro-N-((2-(4′-fluoro-2′-(4-methyl-4H-1,2,4-triazol-3-yl)-[1,1′-biphenyl]-3-yl)-7-(trifluoromethyl)-1H-benzo[d]imidazol-5-yl)methyl)-2-methylpropan-1-amine, Formic Acid] |
| < 200 | < 200 | < 200 | Cn1cnnc1-c1cc(F)ccc1-c1cccc(-c2nc3cc(CNCC4(O)CCCC4)cc(C(F)(F)F)c3[nH]2)c1 [CJ-1, 1-((((2-(4′-Fluoro-2′-(4-methyl-4H-1,2,4-triazol-3-yl)-[1,1′-biphenyl]-3-yl)-7-(trifluoromethyl)-1H-benzo[d]imidazol-5-yl)methyl)amino)methyl)cyclopentan-1-ol] |
| < 200 | < 200 | < 200 | Cn1cnnc1-c1cc(F)ccc1-c1cccc(-c2nc3cc(CNCC4(O)CC(F)(F)C4)cc(C(F)(F)F)c3[nH]2)c1 [CK-2, 3,3-Difluoro-1-((((2-(4′-fluoro-2′-(4-methyl-4H-1,2,4-triazol-3-yl)-[1,1′-biphenyl]-3-yl)-7-(trifluoromethyl)-1H-benzo[d]imidazol-5-yl)methyl)amino)methyl)cyclobutan-1-ol] |
| < 200 | 1000 to 10000 | 200 to 1000 | Cn1cnnc1-c1cc(C#N)ccc1-c1cccc(-c2nc3cc(CO)cc(C(F)(F)F)c3o2)c1 [CL-2, 3′-(5-(Hydroxymethyl)-7-(trifluoromethyl)benzo[d]oxazol-2-yl)-2-(4-methyl-4H-1,2,4-triazol-3-yl)-[1,1′-biphenyl]-4-carbonitrile] |
| < 200 | < 200 | < 200 | Cn1cnnc1-c1cc(F)ccc1-c1cccc(-c2nc3cc(CN[C@@H]4CCC[C@@H]4O)ccc3o2)c1 [CM-1, (1S,2R)-2-(((2-(4′-Fluoro-2′-(4-methyl-4H-1,2,4-triazol-3-yl)-[1,1′-biphenyl]-3-yl)benzo[d]oxazol-5-yl)methyl)amino)cyclopentan-1-ol] |
| < 200 | 200 to 1000 | 200 to 1000 | CO[C@H]1CCC[C@H]1N(C)Cc1cc(C(F)(F)F)c2oc(-c3cccc(-c4ccc(F)cc4-c4nncn4C)c3)nc2c1 [CN-5, (1R,2S)—N-((2-(4′-Fluoro-2′-(4-methyl-4H-1,2,4-triazol-3-yl)-[1,1′-biphenyl]-3-yl)-7-(trifluoromethyl)benzo[d]oxazol-5-yl)methyl)-2-methoxy-N-methylcyclopentan-1-amine] |
| < 200 | < 200 | < 200 | Cn1cnnc1-c1cc(C#N)ccc1-c1cccc(-c2nc3cc(CN[C@@H]4CCC[C@@H]4O)cc(C(F)(F)F)c3o2)c1 [CP-4, 3′-(5-((((1R,2S)-2-Hydroxycyclopentyl)amino)methyl)-7-(trifluoromethyl)benzo[d]oxazol-2-yl)-2-(4-methyl-4H-1,2,4-triazol-3-yl)-[1,1′-biphenyl]-4-carbonitrile] |
| < 200 | < 200 | < 200 | Cn1cnnc1-c1cc(F)ccc1-c1cccc(-c2nc3cc(CNCC4(O)CC(F)(F)C4)cc(C(F)(F)F)c3o2)c1 [CQ-1, 3,3-Difluoro-1-((((2-(4′-fluoro-2′-(4-methyl-4H-1,2,4-triazol-3-yl)-[1,1′-biphenyl]-3-yl)-7-(trifluoromethyl)benzo[d]oxazol-5-yl)methyl)amino)methyl)cyclobutan-1-ol] |
| < 200 | 200 to 1000 | < 200 | CCN(CC[C@@H](O)C(F)(F)F)Cc1cc(C(F)(F)F)c2oc(-c3cccc(-c4ccc(F)cc4-c4nncn4C)c3)nc2c1 [CR-2] |
| < 200 | < 200 | < 200 | Cn1cnnc1-c1cc(F)ccc1-c1cccc(-c2nc3cc(CNC[C@@H](O)C(F)(F)F)cc(C(F)(F)F)c3o2)c1 [CR-3, (R)-1,1,1-trifluoro-3-(((2-(4′-fluoro-2′-(4-methyl-4H-1,2,4-triazol-3-yl)-[1,1′-biphenyl]-3-yl)-7-(trifluoromethyl)benzo[d]oxazol-5-yl)methyl)amino)propan-2-ol] |
| < 200 | 200 to 1000 | < 200 | Cn1cnnc1-c1cc(F)ccc1-c1cccc(-c2nc3cc(CNCC4(C#N)CCCC4)cc(C(F)(F)F)c3[nH]2)c1 [CS-1, 1-((((2-(4′-Fluoro-2′-(4-methyl-4H-1,2,4-triazol-3-yl)-[1,1′-biphenyl]-3-yl)-7-(trifluoromethyl)-1H-benzo[d]imidazol-5-yl)methyl)amino)methyl)cyclopentane-1-carbonitrile] |
